Assay results reported in patent publication US20250250268A1 (SHANGHAI HAOYUAN MEDCHEMEXPRESS CO., LTD., priority 2022, published 2025).
“Also recorded” adds a separate entry of the source.

How the values were obtained:
[1] = Stability tests of crystal forms under accelerated and low-temperature storage (XRPD, HPLC); format: physicochemical; conditions: for Polymorphic changes on storage (XRPD): accelerated test conditions (40° C., 75% RH) and low-temperature storage conditions (−20° C.)
microglia = assay: Pharmacological animal experiment: microglia clearance in mice fed PLX5622 crystal forms (IBA1 staining, Image j counting); format: in vivo, C57BL/6J mice; conditions: for 7-day clearance rate / 14-day clearance rate / 7-day number of cells / 14-day number of cells: C57BL/6J mice, in AIN-76A food; for 7-day clearance rate / 14-day clearance rate: administration every other day, average clearance rate of microglia; for 7-day clearance rate / 7-day number of cells: 7 days; for 14-day clearance rate / 14-day number of cells: 14 days; for 7-day number of cells / 14-day number of cells: average statistical number of microglia (total number in brains); for Microglia clearance rate compared with Form A: 7-day or 14-day clearance rate, mice
Protocol: Mice were adaptively fed for 3-6 days upon arrival in the mouse room, with AIN-76A food. Group A was administered PLX5622 compound Form A, and Group B was administered PLX5622 compound Form B.
Formal administration: Administration was conducted every other day, on days 1, 3, 5, 7, 9, 11, and 13. Each time of administration required weighing, and the amount was adjusted to 4 g per mouse (actual consumption around 3 g per mouse).
After anesthesia, mice were immobilized using tape or needles/pins, and the fur on the lateral thorax was lifted with forceps. The skin was then cut with scissors to expose the white sternum. The diaphragm was carefully incised with fine scissors, taking care not to damage the above heart.
A small incision was made on the right atrium. The heart was fixed with forceps, and an injection needle was inserted into the left ventricle from the apex of the heart at an angle roughly parallel to the left-right midline of the heart.
Sucrose gradient dehydration: The mouse brains were fixed in 4% paraformaldehyde overnight and then dehydrated with 20% sucrose solution until the material sank to the bottom, followed by dehydration with 30% sucrose solution until the material sank to the bottom. Embedding and sectioning: get 25-40 μm sections, which are the tissues that need to be stained.
• 1. After washing the sections, blocking was initiated with 5% BSA in PBST for 2 hours. • 2. Incubation with the primary antibody, IBA1 (1:500) in 1% BSA in PBST, at 4° C. for at least 14 hours. • 3. Incubation with Alexa Fluor-conjugated secondary antibody (1:500) in 1% BSA in PBST, at room temperature for 2 hours. • 4. Washed with PBS 3-5 times for 10 minutes each, stained with DAPI, followed by addition of anti-fade reagent, dried overnight, and then photographed and scanned for analysis.
Image j counting: All microglia with complete morphology need to be counted.
Among them, the mice are all 3-month-old male mice; the clearance rates are the average clearance rate and the average statistical number of microglia (total number in brains).

[2] = Drying transformation relationship of Form A-F (vacuum drying, XRPD); conditions: for Description / XRPD results: 60-80° C. vacuum drying; for Stability / conversion of crystal form on drying: dried at high temperatures, solvent removed
[3] = Pharmacokinetic determination in rats (feed administration, plasma and brain); format: in vivo; conditions: 1200 ppm in AIN-76A standard feed, 7-day and 14-day groups, Cmax and AUC
From the text: Plasma or brain samples from the 2 groups were collected for pharmacokinetic (PK) parameter analysis. For the 7-day group, plasma samples were collected on day 1, day 3, and day 7; after the rats were euthanized on day 7, brain tissue samples were collected. For the […], plasma samples were collected from rats on day 10 and 14; on day 14, the mice were euthanized, and brain tissue samples were collected.
For the processing of plasma samples, rats were anesthetized on days 1, 3, 7 and 10 and 14, and approximately 150 μL of blood was collected via cardiac puncture into anticoagulant centrifuge tubes containing K 2 EDTA. Within 15 minutes of sampling, plasma was obtained by centrifugation at 2000 g for 5 minutes at 4° C. and stored at below −60° C. until analysis. For the processing of brain tissue samples, the rats were euthanized on day 7 and 14, and then the brain tissue was collected. The residual blood on the surface of the tissue was washed away with normal saline, dried with filter paper, weighed, and frozen in dry ice, then store in a refrigerator below −60° C. until sample analysis. Pharmacokinetic (PK) parameters Cmax and AUC were calculated based on a non-compartmental model using WinNonlin 8.2 software. Drug concentrations in mouse plasma and brain tissue were determined.

Purity (by HPLC %) ([1]; 40° C./75% RH, 5 Days) | XRPD ([1]; 40° C./75% RH, 5 Days) | Purity (by HPLC %) ([1]; 40° C./75% RH, 10 Days) | XRPD ([1]; 40° C./75% RH, 10 Days) | Purity (by HPLC %) ([1]; Initial, 0 Day) | XRPD ([1]; Initial, 0 Day) | Polymorphic changes on storage (XRPD) [1] | Purity (by HPLC %) ([1]; −20° C., 10 months) | XRPD ([1]; −20° C., 10 months) | Stability / conversion of crystal form on drying [2] | Description ([2]; 24 hours) | XRPD results ([2]; 24 hours) | SMILES | 7-day clearance rate (microglia) | 14-day clearance rate (microglia) | 7-day number of cells (microglia) | 14-day number of cells (microglia) | other results
99.90% | Form A | 99.90% | Form A | 99.90% | Form A | did not undergo any polymorphic changes | 99.90% | Form A | remain stable |  |  | COc1ncc(F)cc1CNc1ccc(Cc2c[nH]c3ncc(C)cc23)c(F)n1 [Form A, 6-Fluoro-N-((5-fluoro-2-methoxypyridin-3-yl)methyl)-5-((5-methyl-1H-pyrrolo[2,3-b]pyridin-3-yl)methyl) pyridin-2-amine] | 72.6% | 75.1% | (1337) | (922) | Individual Impurity (RRT/%) RRT = 0.33 ([1]; 40° C./75% RH, 5 Days): 0.06%; Individual Impurity (RRT/%) RRT = 1.50 ([1]; 40° C./75% RH, 5 Days): 0.04%; Individual Impurity (RRT/%) RRT = 0.33 ([1]; 40° C./75% RH, 10 Days): 0.06%; Individual Impurity (RRT/%) RRT = 1.50 ([1]; 40° C./75% RH, 10 Days): 0.04%; Individual Impurity (RRT/%) RRT = 0.33 ([1]; Initial, 0 Day): 0.06%; Individual Impurity (RRT/%) RRT = 1.50 ([1]; Initial, 0 Day): 0.04%; Individual Impurity (RRT/%) RRT = 0.33 ([1]; −20° C., 10 months): 0.06%; Individual Impurity (RRT/%) RRT = 1.50 ([1]; −20° C., 10 months): 0.04%; Description ([2]; 2 days): White to off-white; XRPD results ([2]; 2 days): Form A
99.92% | Form B | 99.92% | Form B | 99.92% | Form B | did not undergo any polymorphic changes | 99.92% | Form B | remain stable |  |  | COc1ncc(F)cc1CNc1ccc(Cc2c[nH]c3ncc(C)cc23)c(F)n1 [Form B, 6-Fluoro-N-((5-fluoro-2-methoxypyridin-3-yl)methyl)-5-((5-methyl-1H-pyrrolo[2,3-b]pyridin-3-yl)methyl) pyridin-2-amine] | 87% | 90% | (482) | (377) | Individual Impurity (RRT/%) RRT = 1.04 ([1]; 40° C./75% RH, 5 Days): 0.05%; Individual Impurity (RRT/%) RRT = 1.29 ([1]; 40° C./75% RH, 5 Days): 0.03%; Individual Impurity (RRT/%) RRT = 1.04 ([1]; 40° C./75% RH, 10 Days): 0.05%; Individual Impurity (RRT/%) RRT = 1.29 ([1]; 40° C./75% RH, 10 Days): 0.03%; Individual Impurity (RRT/%) RRT = 1.04 ([1]; Initial, 0 Day): 0.05%; Individual Impurity (RRT/%) RRT = 1.29 ([1]; Initial, 0 Day): 0.03%; Individual Impurity (RRT/%) RRT = 1.04 ([1]; −20° C., 10 months): 0.05%; Individual Impurity (RRT/%) RRT = 1.29 ([1]; −20° C., 10 months): 0.03%; Microglia clearance rate compared with Form A (microglia): better than Form A; Microglia clearance rate compared with Form A (microglia; listed as crystal form B): better clearance rate of microglia cells at 7 or 14 days compared to crystal form A; also recorded: higher rate of microglia cell clearance at 7 days or 14 days; Pharmacokinetic performance [3]: better pharmacokinetic performance; Description ([2]; 3 days): White to off-white; XRPD results ([2]; 3 days): Form B
 |  |  |  |  |  |  |  |  | converted to Form A | White to off-white | Form A | COc1ncc(F)cc1CNc1ccc(Cc2c[nH]c3ncc(C)cc23)c(F)n1 [Form C, 6-Fluoro-N-((5-fluoro-2-methoxypyridin-3-yl)methyl)-5-((5-methyl-1H-pyrrolo[2,3-b]pyridin-3-yl)methyl) pyridin-2-amine] |  |  |  |  | 
 |  |  |  |  |  |  |  |  | converting it to Form A | White to off-white | Form A | COc1ncc(F)cc1CNc1ccc(Cc2c[nH]c3ncc(C)cc23)c(F)n1 [Form D, 6-Fluoro-N-((5-fluoro-2-methoxypyridin-3-yl)methyl)-5-((5-methyl-1H-pyrrolo[2,3-b]pyridin-3-yl)methyl) pyridin-2-amine] |  |  |  |  | 
 |  |  |  |  |  |  |  |  |  | White to off-white | Form A + B | COc1ncc(F)cc1CNc1ccc(Cc2c[nH]c3ncc(C)cc23)c(F)n1 [Form E, 6-Fluoro-N-((5-fluoro-2-methoxypyridin-3-yl)methyl)-5-((5-methyl-1H-pyrrolo[2,3-b]pyridin-3-yl)methyl) pyridin-2-amine] |  |  |  |  | 
 |  |  |  |  |  |  |  |  |  | White to off-white | Form A + B | COc1ncc(F)cc1CNc1ccc(Cc2c[nH]c3ncc(C)cc23)c(F)n1 [Form F, 6-Fluoro-N-((5-fluoro-2-methoxypyridin-3-yl)methyl)-5-((5-methyl-1H-pyrrolo[2,3-b]pyridin-3-yl)methyl) pyridin-2-amine] |  |  |  |  | 
